The text below walks through data of patent US20260297164A1, “ANTI-FIBROTIC PEPTIDES AND USES THEREOF” (Deackt, Inc., priority 2021, published 2026).

In data set [1] the test system is PI3K/Akt/mTOR signaling in lung fibroblasts. The data set can be described thus: TGF-β1 stimulation of PI3K/Akt/mTOR signaling in lung fibroblasts. The following applies: TGF-β1 10 ng/ml, 24 h. It counts as cell-based, mouse. The protocol: (§1) FIG. 3. CD148 deficiency enhances PI3K/Akt/mTOR signaling which results in low autophagy, high p62 expression in lung fibroblasts. (A) Mouse lung fibroblasts were isolated from Ptprj^fl/fl Col1a2^Cre-ER(T)+/0 mice (Ptprj−/−) and Col1a2^Cre-ER(T)+/0 mice (WT) and then treated with 4-OHT (1 μM) for 24 h. After 4-OHT treatment, cells were exposed to TGF-β1 (10 ng/ml) for 24 h. After stimulation, cells were harvested, and the expression of p-p85 (Tyr458), p-Akt (Ser473), pmTOR (Ser2448), p-p70 S6 kinase (Thr389), p-S6 ribosomal protein (Ser235/236) and CD148 (n=4 for each condition) in lysates was determined by Western immunoblotting and corresponding densitometry (ImageJ software). Data were normalized to corresponding dephospho-forms or GAPDH. (B) WT and Ptprj−/− cells were stimulated with TGF-β1 (10 ng/ml) for 24 h. Then cells were lysed and LC3-I and -II and p62 were measured by western blot (n=4). […] Then, autophagy flux was measured by LC3-II accumulation in the absence or presence of lysosomal acidification inhibitor chloroquine (25 μM) at 2, 4 and 6 h (n=4). […] LC3 puncta positive cells were quantified using ImageJ (D). […]
(§2) Polyacrylamide gel electrophoresis and immunoblotting were performed according to standard methods. […] The signals were detected by ECL (Thermo Fisher Scientific, Waltham, MA). […]

Data set [2] deals with autophagy in lung fibroblasts. The data set can be described thus: TGF-β1 effect on autophagy (LC3, p62) in lung fibroblasts. The note with it: TGF-β1 10 ng/ml, 24 h. Format: cell-based, mouse. The protocol:
as §1, §2

On to TGF-β1, for which the “phosphorylation of PI3K (p85 subunit), Akt, mTOR and mTOR-related signaling proteins (p70 S6-kinase and S6)” value in data set [1] was “upregulated”. In data set [2], the “autophagy (LC3-II relative to LC3-I)” value was “downregulated autophagy” and the p62 expression entry is recorded as “increased p62 expression”.
